# Source: paper PMC4035770 (Pharmaceuticals, 2014)
# Key:
# [1] = Screening incubation in USP simulated intestinal fluid (SIF); details: incubation 37 °C, one hour, n = 2; <LOD = bupropion, its metabolites or other prodrugs not detected; LOD 0.1 ng/mL
# Protocol: USP simulated intestinal fluid preparation. Monobasic potassium phosphate (0.068 g) was dissolved in 2.5 mL of water and mixed. Sodium hydroxide (0.77 mL of 0.2 M) and water (5.0 mL) were added. Pancreatin (0.1 g) was added and the pH adjusted with either 0.2 M sodium hydroxide or 0.2 M hydrochloric acid to a pH of 6.8 ± 0.1. The solution was diluted to 10 mL with water.
# (§1) Pepsin is most efficient at cleaving peptide bonds between hydrophobic and aromatic amino acids such as phenylalanine, tryptophan and tyrosine. In order to simulate the pH and digestive enzymes of the stomach, USP simulated gastric fluid (SGF) was used. Conditions in the intestine were simulated using USP simulated intestinal fluid (SIF).
# (§2) One hour metabolism or hydrolysis was considered to be sufficient time to generate detectable levels of metabolites, bearing in mind the likely exposure time in vivo. A blank media was used in each analysis to subtract a background from each LC-MS sample chromatogram. A t0 sample was also used to identify impurities related to each prodrug.
# (§3) After one hour incubation of each compound in the selected media, the mixture was quenched with acetonitrile and the sample was centrifuged to remove precipitated proteins. The supernatant solution was analyzed immediately by LC-MS using data dependent acquisition analysis.
# (§4) This transformation is commonly used to assess activity of oxidative enzyme CYP2B6 in human liver and intestinal microsomes. […] It was important to report if any of the other prodrugs were detected if for instance a possible multistep-prodrug was found.
# [2] = target: Muscarinic non -selective, central; experiment: Pharmacological screen, muscarinic receptor binding
# [3] = Screening incubation in USP simulated gastric fluid (SGF); details: incubation 37 °C, one hour, n = 2; <LOD = bupropion, its metabolites or other prodrugs not detected; LOD 0.1 ng/mL
# Protocol: USP simulated gastric fluid preparation. Sodium chloride (0.02 g) and purified pepsin (0.032 g) that is derived from porcine stomach mucosa with an activity of 800 to 2,500 units per mg of protein were dissolved in 0.07 mL of concentrated hydrochloric acid and sufficient water to make 10 mL.
# as §1, §2, §3, §4
# [4] = target: T1, Norepinephrine transporter (NET) (Homo sapiens, UniProt P23975); experiment: Pharmacological screen, norepinephrine transporter; type: binding
# T1 construct: MDS Pharma Services Taiwan
# T1 sequence (P23975 whole entry): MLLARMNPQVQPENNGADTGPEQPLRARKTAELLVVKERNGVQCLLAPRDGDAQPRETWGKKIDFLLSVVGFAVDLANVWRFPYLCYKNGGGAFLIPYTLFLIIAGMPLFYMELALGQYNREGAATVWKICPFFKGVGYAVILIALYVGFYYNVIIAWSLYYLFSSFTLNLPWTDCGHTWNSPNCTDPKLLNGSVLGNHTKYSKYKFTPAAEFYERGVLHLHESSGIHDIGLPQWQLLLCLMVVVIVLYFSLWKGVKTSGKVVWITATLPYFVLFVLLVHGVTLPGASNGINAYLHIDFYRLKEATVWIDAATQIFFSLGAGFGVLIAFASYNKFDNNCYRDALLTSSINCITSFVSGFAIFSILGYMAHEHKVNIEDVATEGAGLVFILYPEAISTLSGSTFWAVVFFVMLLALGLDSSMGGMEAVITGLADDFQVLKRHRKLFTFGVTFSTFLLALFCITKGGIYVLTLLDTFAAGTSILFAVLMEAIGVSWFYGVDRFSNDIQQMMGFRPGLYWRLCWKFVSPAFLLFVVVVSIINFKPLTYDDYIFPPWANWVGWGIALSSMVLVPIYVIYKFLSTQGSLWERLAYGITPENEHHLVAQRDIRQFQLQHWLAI
# [5] = Michaelis-Menten kinetics of bupropion formation in pooled human liver microsomes; type: in vitro ADME; details: pooled HLM 0.1 mg/mL, substrate 1–500 µM, 20 min, 37 °C, n = 6
# Protocol: Microsomes, NADPH regenerating solutions A and B were thawed rapidly to 37 °C, and then kept on ice until ready for use. Substrate solutions were prepared (1–500 µM) where the maximum concentration of DMSO was 1%, and the concentration of microsomes, NADPH regenerating solution B and phosphate buffer was fixed. After incubation for 5 min, NADPH regenerating solution A was added and the metabolism was initiated. Final volume was 100 μL. The tube was inverted twice and vortex mixed. The final concentrations of prodrug in this solution was 1–500 µM, HLM (0.1 mg/mL) or HIM (0.02 mg/mL), NADP^+ (1.3 mM), glucose-6-phosphate dehydrogenase (0.4 U/mL) and 1.0% DMSO. This solution was incubated for 20 min at 37 °C. The reaction was quenched by addition of 100 µL of acetonitrile. The mixture was centrifuged at 10,000 × g for 10 min. The supernatant was analyzed by LC-MS analysis.
# [6] = Aqueous pH stability profile at 40 °C
# [7] = target: T2, Dopamine active transporter (DAT) (Homo sapiens, UniProt Q01959); experiment: Pharmacological screen, dopamine transporter; type: binding
# T2 construct: MDS Pharma Services Taiwan
# T2 sequence (Q01959 whole entry): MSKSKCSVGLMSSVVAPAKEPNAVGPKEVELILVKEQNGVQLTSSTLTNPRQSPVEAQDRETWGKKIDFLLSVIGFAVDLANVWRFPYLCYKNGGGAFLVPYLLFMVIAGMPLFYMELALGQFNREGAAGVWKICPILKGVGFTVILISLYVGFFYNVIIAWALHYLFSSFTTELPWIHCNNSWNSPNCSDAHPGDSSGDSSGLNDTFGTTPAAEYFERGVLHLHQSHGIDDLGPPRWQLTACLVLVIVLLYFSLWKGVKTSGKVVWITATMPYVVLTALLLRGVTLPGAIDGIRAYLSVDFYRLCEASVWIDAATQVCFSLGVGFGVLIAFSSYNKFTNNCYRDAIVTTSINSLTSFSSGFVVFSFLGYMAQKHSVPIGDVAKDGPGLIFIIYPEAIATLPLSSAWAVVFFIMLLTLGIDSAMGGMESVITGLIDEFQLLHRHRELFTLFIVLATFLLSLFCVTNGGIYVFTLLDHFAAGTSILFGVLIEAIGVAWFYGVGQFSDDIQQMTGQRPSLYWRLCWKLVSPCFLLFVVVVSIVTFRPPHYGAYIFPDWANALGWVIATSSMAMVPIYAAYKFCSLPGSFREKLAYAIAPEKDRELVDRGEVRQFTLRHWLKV
# [8] = target: T3, Serotonin transporter (SERT) (Homo sapiens, UniProt P31645)
# T3 sequence (P31645 whole entry): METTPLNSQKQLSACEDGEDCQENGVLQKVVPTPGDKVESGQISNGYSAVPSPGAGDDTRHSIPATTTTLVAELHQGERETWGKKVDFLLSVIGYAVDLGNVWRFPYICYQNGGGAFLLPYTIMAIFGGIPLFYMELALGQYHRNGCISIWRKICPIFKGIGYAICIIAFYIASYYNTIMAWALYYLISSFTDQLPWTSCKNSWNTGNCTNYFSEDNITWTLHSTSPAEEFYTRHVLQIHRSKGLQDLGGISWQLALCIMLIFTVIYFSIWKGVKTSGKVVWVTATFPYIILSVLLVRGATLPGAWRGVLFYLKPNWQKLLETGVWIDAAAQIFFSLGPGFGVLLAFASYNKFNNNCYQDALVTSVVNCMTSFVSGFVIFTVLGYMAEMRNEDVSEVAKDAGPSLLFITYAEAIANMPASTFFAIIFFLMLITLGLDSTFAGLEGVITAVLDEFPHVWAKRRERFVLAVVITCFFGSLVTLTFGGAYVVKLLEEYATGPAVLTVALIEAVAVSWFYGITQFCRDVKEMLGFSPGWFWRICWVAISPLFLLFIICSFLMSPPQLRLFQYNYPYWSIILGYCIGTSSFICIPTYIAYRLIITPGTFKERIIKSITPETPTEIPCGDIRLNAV
# [9] = Microsomal metabolic stability screen, pooled human intestinal microsomes (HIM); type: in vitro ADME; details: 10 µM prodrug, 0.02 mg/mL HIM, NADPH regenerating system, 37 °C, 60 min, n = 2; LOD 0.1 ng/mL
# Protocol: Human intestinal microsome (HIM) stock solution preparation. HIM (0.2 mL) stock was added to PBS solution (9.8 mL). Final concentration; 0.2 mg/mL.
# (§5) Microsomes, NADPH regenerating solutions A and B were thawed rapidly to 37 °C, then kept on wet ice until ready for use. A stock solution of the prodrug (5 mM) was prepared in ACN. To a 1.7 mL microcentrifuge tube in a 37 °C water bath was added the phosphate buffered saline solution (349 µL), the NADPH regenerating solution A (50 µL), the NADPH regenerating solution B (50 µL), and the prodrug solution (1 µL). After incubation for 5 min, microsome solution (50 µL) was added and the metabolism was initiated. The tube was vortex mixed. The final concentrations in this solution was 10 µM prodrug, 0.1 mg/mL HLM or 0.02 mg/mL HIM, 1.3 mM NADP^+, 0.4 U/mL glucose-6-phosphate dehydrogenase and 0.2% organic solvent. This solution was incubated for 60 min at 37 °C. The reaction was quenched by addition of acetonitrile (500 µL). The mixture was centrifuged at 10,000 × g for 10 min. The supernatant was analyzed by LC-MS analysis.
# The intestinal cells contain cytochome P450 enzymes, flavin monoxygenases, esterases and UDP glucuroyl transferases. Condition III involved the use of pooled human intestinal microsomes (HIM) in order to simulate the potential metabolism that occurs during absorption and passage through the intestinal wall.
# Nicotinic acetylcholine = experiment: Pharmacological screen, nicotinic acetylcholine receptor binding
# Protocol: 2.4. Plasma LLOQ/Precision […]
# of 10 ng/mL. […] ACN (200 µL) […]
# was added and the solution was vortex mixed. The remaining mixture was centrifuged at 10,000 rpm […]
# The final concentration was 1 ng/mL. […]
# signal to noise ratio of three.
# 2.6. Brain LLOQ Accuracy/Precision
# Aliquots (5 × 200 µL) were […]
# transferred to 1.5 mL microcentrifuge tubes.
# ACN (300 µL) was added and […]
# the solution was vortex mixed. […] 200 µL
# The solution was vortex mixed again and analysed by HPLC. Final concentrations were 12.5, 125 ng/mL.
# 2.7. Pharmacological Screening of N-Methyl Bupropion and Bupropion […]
# nicotinic acetylcholine receptor [5,6] and SERT [7,8]. The specific nicotinic acetylcholine assays are […]
# and nicotinic acetylcholine α7 [12].
# 3. Results Method Validation […]
# diluent solutions separately.
# [10] = target: T3, Serotonin transporter (SERT); experiment: biochemical
# [11] = Microsomal metabolic stability screen, pooled human liver microsomes (HLM); type: in vitro ADME; details: 10 µM prodrug, 0.1 mg/mL HLM, NADPH regenerating system, 37 °C, 60 min, n = 2; LOD 0.1 ng/mL
# Protocol: Human liver microsome (HLM) stock solution preparation. HLM (0.5 mL) stock was added to PBS solution (9.5 mL). Final concentration; 1 mg/mL. The PBS solution was prepared by addition of one USP PBS tablet (Sigma-Aldrich catalogue number P4417) dissolved in 200 mL deionised water.
# as §5
# After passing through the intestinal membrane into the portal circulation the prodrug quickly enters the liver. This metabolic condition was simulated in the present work by using pooled human liver microsomes (HLM).
# [12] = Screening incubation in pooled human plasma (PHP); type: in vitro ADME; details: incubation 37 °C, one hour, n = 2; <LOD = bupropion, its metabolites or other prodrugs not detected; LOD 0.1 ng/mL
# Source text: Pooled human plasma solution preparation. Citrated human plasma was pooled together from three separate donors.
# Finally, pooled human plasma (PHP) was used to evaluate the prodrug stability/activation in blood since the plasma fraction contains much of the hydrolase activity in blood.
structure (smiles),measurement,setting,value
"CC(C(=O)c1cccc(Cl)c1)N(C)C(C)(C)C (racemic) [Compound 4, Rac-N-methyl bupropion]",Primary product detected in media SIF,[1],<LOD
same,IC50,[2],39.3 µM
same,Ki,[2]; Cheng and Prusoff,12.3 µM
same,Primary product detected in media SGF,[3],<LOD
same,IC50,[4],57.9 µM
same,Ki,[4],54.4 µM
same,nH (Hill coefficient),[4]; NET,0.764
same,"activity as norepinephrine reuptake inhibitor, in words",[4]; compared with bupropion,less active than bupropion
same,Vmax of bupropion formation,[5],900.4 ± 73.8 pmol/min/mg HLM
same,Vmax of bupropion formation,[5]; listed as N-methylbupropion,900.4 ± 74 pmol/min/mg HLM
same,aqueous degradation rate above pH 5,[6]; above pH 5,degraded faster than bupropion
same,aqueous degradation rate above pH 12,[6]; above pH 12,rate of degradation decreased quite dramatically
same,aqueous stability / degradation rate below pH 5,[6]; below pH 5,stable
same,IC50,[7],3.71 µM
same,Ki,[7],2.95 µM
same,nH (Hill coefficient),[7]; DAT,0.924
same,"activity as dopamine reuptake inhibitor, in words",[7]; compared with bupropion,less active than bupropion
same,"effect on the serotonin transporter system, in words",[8],little effect
same,Primary product detected in media HIM,[9],bupropion was detected
same,IC50,Nicotinic acetylcholine; Nicotinic acetylcholine,71.6 µM
same,Ki,"Nicotinic acetylcholine; Nicotinic acetylcholine, Cheng and Prusoff",49.2 µM
same,"activity at the nicotinic acetylcholine receptors, in words",Nicotinic acetylcholine; compared with bupropion,more active than bupropion
same,IC50,[10],> 100 µM
same,Primary product detected in media HLM,[11],bupropion was detected
same,Primary product detected in media PHP,[12],<LOD
